Experimental findings from PMC11094777, “Mutational and structural studies of (βα)8‐barrel fold methylene‐tetrahydropterin reductases utilizing a common catalytic mechanism” (Protein Science : A Publication of the Protein Society, 2024) are described below.

Where two headings read alike, the source gives them in different places.

Holding throughout (test): F420H2 oxidation followed at […] nm, anaerobic
Type in all cases: biochemical

For experiment [1], the target named is T1, jMer (F420-dependent methylene-H4MPT reductase from Methanocaldococcus jannaschii) (Methanocaldococcus jannaschii, UniProt Q58929).
T1 construct: gene mer; pT7-7_jMer in E. coli ArcticExpress (DE3); no tag mentioned; heat step and column purification; homodimer ~80 kDa
T1 sequence (Q58929 whole entry): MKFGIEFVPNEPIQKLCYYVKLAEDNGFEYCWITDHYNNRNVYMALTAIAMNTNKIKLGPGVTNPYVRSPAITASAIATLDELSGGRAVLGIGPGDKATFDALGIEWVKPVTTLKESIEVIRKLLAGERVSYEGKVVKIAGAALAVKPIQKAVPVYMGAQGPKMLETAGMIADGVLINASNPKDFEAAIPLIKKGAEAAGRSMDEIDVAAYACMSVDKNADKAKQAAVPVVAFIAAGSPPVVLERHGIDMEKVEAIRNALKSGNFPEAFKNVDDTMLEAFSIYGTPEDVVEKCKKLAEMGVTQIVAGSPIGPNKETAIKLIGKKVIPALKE
The note with it: 20 μM F420H2, 100 mM Tris/HCl pH 8.0, 55°C; methylene-H4MPT made in situ from H4MPT and 15 mM formaldehyde; read-out: App. K m.

Experiment [2] has as its target T2, jMer (F420-dependent methylene-H4MPT reductase from Methanocaldococcus jannaschii) (Methanocaldococcus jannaschii, UniProt Q58929, E6Q, form not given).
T2 construct: gene mer; pT7-7_jMer in E. coli ArcticExpress (DE3); no tag mentioned; heat step and column purification; homodimer ~80 kDa
The note with it: 20 μM F420H2, 100 mM Tris/HCl pH 8.0, 55°C; read-out: App. K m.

Experiment [3] addresses T3, jMer (F420-dependent methylene-H4MPT reductase from Methanocaldococcus jannaschii) (Methanocaldococcus jannaschii, UniProt Q58929, D96N, form not given).
T3 construct: gene mer; pT7-7_jMer in E. coli ArcticExpress (DE3); no tag mentioned; heat step and column purification; homodimer ~80 kDa
The note with it: 20 μM F420H2, 100 mM Tris/HCl pH 8.0, 55°C; read-out: App. K m.

Experiment [4] deals with T1, jMer (F420-dependent methylene-H4MPT reductase from Methanocaldococcus jannaschii). To be noted: 20 μM F420H2, 100 mM Tris/HCl pH 8.0, 55°C; read-out: App. K m.

T3 sequence (Q58929 whole entry D96N, form open): as the sequence (Q58929 whole entry) above, with D96N counted along it
T2 sequence (Q58929 whole entry E6Q, form open): as the sequence (Q58929 whole entry) above, with E6Q counted along it

As for `C[C@@H]1Nc2nc(N)[nH]c(=O)c2N2CN(c3ccc(C[C@H](O)[C@H](O)[C@H](O)CO[C@H]4O[C@H](COP(=O)(O)O[C@@H](CCC(=O)O)C(=O)O)[C@@H](O)[C@H]4O)cc3)[C@H](C)[C@@H]12` [Methylene‐H4MPT], the Km stood at 58 ± 29.7 µM in experiment [1], 34 ± 10 µM in experiment [2], 140 ± 30 µM in experiment [3] and 20 ± 5 µM in experiment [4].
